Measurements as given in BigSolDB 2.1.

O=C(N[C@@H](Cc1c[nH]c2ccccc12)C(=O)O)OCc1ccccc1
solubility (mole fraction)
Conditions	283.15 K	288.15 K	293.15 K	298.15 K	303.15 K	308.15 K	313.15 K	318.15 K	323.15 K
in 2-butanone	0.133	0.143	0.152	0.161	0.173	0.182	0.196	0.205	0.221
in acetone	0.204	0.23	0.264	0.306	0.358	0.409	0.458	0.505	0.557
in acetonitrile	0.0197	0.025	0.0305	0.0428	0.06	0.0766	0.0967	0.117	0.134
in ethanol	0.0567	0.0689	0.0826	0.1	0.124	0.142	0.164	0.189	0.208
in ethyl acetate	0.0484	0.0559	0.0629	0.0707	0.0794	0.0906	0.103	0.118	0.133
in isobutanol	0.00972	0.0123	0.0177	0.0245	0.0302	0.0379	0.045	0.0547	0.0692
in isopropanol	0.0299	0.0351	0.0439	0.0536	0.0656	0.08	0.0917	0.109	0.125
in methyl acetate	0.0663	0.0737	0.0836	0.0968	0.112	0.125	0.141	0.162	0.182
in n-butanol	0.0231	0.0278	0.0334	0.0403	0.0526	0.0666	0.0784	0.0941	0.114
in n-pentanol	0.0181	0.0209	0.0252	0.0322	0.0393	0.0458	0.0536	0.0631	0.0717
in n-propanol	0.0283	0.0389	0.0502	0.064	0.0763	0.0881	0.104	0.123	0.141
in water	4.06e-05	5.32e-05	6.49e-05	7.79e-05	8.87e-05	9.81e-05	0.000109	0.000118	0.000125
